These compounds were tested on MDCK cells (assay: HGF-induced epithelial-mesenchymal transition / migration of MDCK cells on transwell filters (crystal violet densitometry)). Conditions: Canis lupus familiaris, MDCK, 24 h, Table 4, 10 μM compound, then HGF, percentage like untreated controls (unstimulated cells = maximal effect, HGF only = nil).
Format: cell-based
Protocol: MDCK cells were seeded at confluency into the wells of a transwell filter in DMEM with 10% fetal bovine serum. Cells were cultured for 24 hours. Test compounds, dissolved in DMSO, were added to each test well to a 10 μM final concentration, and then hepatocyte growth factor (HGF) was then added. The MDCK cells were cultured for 24 hours. Concurrently, controls treated with and without HGF and with no test compounds were also prepared.
After post-HGF addition culturing, transwell filters were prepared by repeated washing using ice cold PBS. The cells were then fixed with paraformaldehyde (3.7%) on ice for 15 minutes to the filters. After fixation, the transwell filters were washed repeatedly with PBS followed by staining with crystal violet for 15 minutes. The transwell filters were washed again with distilled water.
The upper surface of the transwell filters were swabbed using a cotton-tipped probe. The filters were photographed using a gel documentation system. Densitometry measurements were made on the test samples and compared with control samples.

Row | Structure (SMILES) | inhibition at 10 µM
1 | Cc1nc(NC(=O)c2cccc([N+](=O)[O-])c2)ccc1I [Compound B-3] | 95.9%
2 | Cc1nc(NC(=O)c2cc([N+](=O)[O-])ccc2N2CCOCC2)ccc1I [Compound B-4] | 31.7%
3 | Cc1cc(C)nc(NC(=O)c2cccc([N+](=O)[O-])c2)c1 [Compound B-7] | 52.5%

Same assay, conditions: Canis lupus familiaris, MDCK, 24 h, Table 5, 10 μM compound, then HGF, percentage like untreated controls (unstimulated cells = maximal effect, HGF only = nil)

Row | Structure (SMILES) | inhibition at 10 µM
4 | Cc1cc(NC(=O)c2cccc([N+](=O)[O-])c2)ccc1I [Compound B-31] | 53.1%
5 | O=C(Nc1cccc(C(=O)N2CCOCC2)c1)c1ccc(-c2ccccc2)cc1 [Compound B-21] | 27.2%
6 | CCCCOc1ccc(C(=O)Nc2ccc(N3CCCC3=O)cc2)cc1 [Compound B-30] | 81.1%
7 | O=C(Nc1cccc(Cl)c1)c1ccc(-c2ccccc2)cc1 [Compound B-19] | 93.2%
8 | COc1cc(C(=O)Nc2ccc(N(C)C)cc2)cc(OC)c1OC [Compound B-22] | > 5%
9 | NC(=O)c1cccc(NC(=O)c2ccc(-c3ccccc3)cc2)c1 [Compound B-20] | 20.6%
10 | Cc1cccc(NC(=O)c2ccc(-c3ccccc3)cc2)c1 [Compound B-17] | 30.2%
11 | Cc1cc(NC(=O)c2ccc(C)c([N+](=O)[O-])c2)c(C)cc1I [Compound B-33] | 56.9%
12 | O=[N+]([O-])c1cccc(S(=O)(=O)Nc2ccc(I)cc2)c1 [Compound B-39] | 89.3%

Same assay, conditions: Canis lupus familiaris, MDCK, 24 h, Table 6, 10 μM compound, then HGF, percentage like untreated controls (unstimulated cells = maximal effect, HGF only = nil)

Row | Structure (SMILES) | inhibition at 10 µM
13 | CCOC(=O)c1[nH]c2c(c1C)C(=O)CC(c1ccco1)C2 (stereo not drawn) [Compound C-4] | 62.2%
14 | Cc1c(C(=O)OCc2ccccc2)[nH]c2c1C(=O)CC(c1ccco1)C2 (stereo not drawn) [Compound C-15] | < 5%
15 | CCOC(=O)c1[nH]c2c(c1C)C(=O)CC(c1ccccc1)C2 (stereo not drawn) [Compound C-8] | 30.6%
16 | Cc1c(C(=O)OCc2ccccc2)[nH]c2c1C(=O)CC(c1cccs1)C2 (stereo not drawn) [Compound C-5] | 41.6%

Same assay, conditions: Table 1; 10 μM compound, then HGF, 24 hours; percentage like untreated controls (unstimulated cells = maximal effect, HGF only = nil)

Row | Structure (SMILES) | Assay Value
17 | O=C1CC(c2ccccc2F)c2cc3c(cc2N1)OCCO3 (stereo not drawn) [Compound 12] | 23.4%
18 | CCOc1c(Br)cc(C2CC(=O)Nc3cc4c(cc32)OCCO4)cc1OC (stereo not drawn) [Compound 8] | 48.8%
19 | COc1cc(C2CC(=O)Nc3cc4c(cc32)OCCO4)cc(OC)c1OC (stereo not drawn) [Compound 3] | 92.4%
20 | O=C1CC(c2cc(F)ccc2F)c2cc3c(cc2N1)CCC3 (stereo not drawn) [Compound 2] | 90.3%
21 | COc1ccc(C2CC(=O)Nc3cc4c(cc32)OCCO4)cc1 (stereo not drawn) [Compound 24] | 100%
22 | CCOc1cc(C2CC(=O)Nc3cc4c(cc32)OCCO4)ccc1O (stereo not drawn) [Compound 18] | 15.9%
23 | O=C1CC(c2cc3c(cc2Cl)OCO3)c2cc3c(cc2N1)OCCO3 (stereo not drawn) [Compound 20] | 5.9%
24 | COc1cc(C2CC(=O)Nc3cc4c(cc32)OCCO4)cc(OC)c1O (stereo not drawn) [Compound 32] | 88.2%
25 | COc1cccc(C2CC(=O)Nc3cc4c(cc32)OCCO4)c1 (stereo not drawn) [Compound 17] | 10.7%

Same assay, conditions: Table 2; 10 μM compound, then HGF, 24 hours; percentage like untreated controls (unstimulated cells = maximal effect, HGF only = nil)

Row | Structure (SMILES) | Assay Value
26 | O=C1CC(c2ccccc2)c2cc3c(cc2N1)OCO3 (stereo not drawn) [Compound 86] | <5%
27 | COc1cccc(C2CC(=O)Nc3cc4c(cc32)CCC4)c1 (stereo not drawn) [Compound 99] | <5%
28 | CC(C)c1ccc(C2CC(=O)Nc3cc4c(cc32)OCCO4)cc1 (stereo not drawn) [Compound 79] | <5%
29 | COc1cc2c(cc1OC)C(c1ccc(Cl)cc1Cl)CC(=O)N2 (stereo not drawn) [Compound 49] | <5%
30 | O=C1CC(c2ccc(O)cc2)c2cc3c(cc2N1)OCO3 (stereo not drawn) [Compound 76] | <5%
31 | CCCCOc1ccccc1C1CC(=O)Nc2cc(OC)c(OC)cc21 (stereo not drawn) [Compound 47] | <5%
32 | O=C1CC(c2ccc(Cl)cc2Cl)c2cc3c(cc2N1)CCC3 (stereo not drawn) [Compound 97] | <5%
33 | O=C1CC(c2cc3c(cc2[N+](=O)[O-])OCO3)c2cc3c(cc2N1)CCC3 (stereo not drawn) [Compound 91] | <5%
34 | COc1cc2c(cc1OC)C(c1cc(OC)c(OC)cc1OC)CC(=O)N2 (stereo not drawn) [Compound 65] | <5%
35 | COc1ccccc1C1CC(=O)Nc2cc(C)c(C)cc21 (stereo not drawn) [Compound 34] | <5%
36 | CCOc1ccccc1C1CC(=O)Nc2cc(OC)c(OC)cc21 (stereo not drawn) [Compound 61] | <5%
37 | CCOc1ccc(C2CC(=O)Nc3cc4c(cc32)OCO4)cc1 (stereo not drawn) [Compound 81] | <5%
38 | O=C1CC(c2ccccc2C(F)(F)F)c2cc3c(cc2N1)OCO3 (stereo not drawn) [Compound 87] | <5%
39 | COc1cccc(C2CC(=O)Nc3cc4c(cc32)CCC4)c1OC (stereo not drawn) [Compound 92] | <5%
40 | CC(C)Oc1ccc(C2CC(=O)Nc3cc4c(cc32)OCCO4)cc1 (stereo not drawn) [Compound 73] | <5%
41 | O=C1CC(c2cc3c(cc2[N+](=O)[O-])OCO3)c2cc3c(cc2N1)CCC3 (stereo not drawn) [Compound 93] | <5%
42 | CCCOc1ccc(C2CC(=O)Nc3cc(OC)c(OC)cc32)cc1 (stereo not drawn) [Compound 43] | <5%
43 | Cc1ccc(C)c(C2CC(=O)Nc3cc4c(cc32)OCO4)c1 (stereo not drawn) [Compound 83] | <5%
44 | O=C1CC(c2ccc(Cl)c(Cl)c2)c2cc3c(cc2N1)OCCO3 (stereo not drawn) [Compound 51] | <5%
45 | COc1cc2c(cc1OC)C(c1cccc(C)c1)CC(=O)N2 (stereo not drawn) [Compound 64] | <5%
46 | COc1cc2c(cc1OC)C(c1cc(F)ccc1F)CC(=O)N2 (stereo not drawn) [Compound 72] | <5%

Same assay, conditions: Table 3; 10 μM compound, then HGF, 24 hours; percentage like untreated controls (unstimulated cells = maximal effect, HGF only = nil)

Row | Structure (SMILES) | Assay Value
47 | C#CCOc1c(Br)cc(CNc2ccc(Cl)c(Cl)c2)cc1OC [Compound A-24] | 16.3%
48 | NC(=O)c1ccccc1/N=C/c1ccc2ccccc2c1 [Compound A-16] | <5%
